Measured values from ChEMBL document CHEMBL6103581, “Identification of Thieno[3,2-d]pyrimidine derivatives as potent and selective Janus Kinase 1 inhibitors” (Eur J Med Chem, 2025).
Calls of active or inactive are those of the source. The calls are words filed in the database; no cut-off is given here.

Legend:
[1] = tested on: BaF3; test: Antiproliferative activity against mouse parental BaF3 cells assessed as cell growth inhibition incubated for 72 hrs by Cell-TiterGlo assay; type: functional
[2] = Antiproliferative activity against mouse Ba/F3-TEL-JAK1 cells assessed as cell growth inhibition incubated for 72 hrs by Cell-TiterGlo assay; type: functional
[3] = tested on: NCI-H1975; test: Antiproliferative activity against human NCI-H1975 cells assessed as cell growth inhibition incubated for 72 hrs by Cell-TiterGlo assay; type: functional
[4] = tested on: NCI-H2087; test: Antiproliferative activity against human NCI-H2087 cells assessed as cell growth inhibition incubated for 72 hrs by Cell-TiterGlo assay; type: functional
[5] = target: Tyrosine-protein kinase JAK2 (Homo sapiens, UniProt O60674); test: Inhibition of N-terminal GST-tagged human recombinant JAK2 (804 to end residues) extracted from baculovirus infected in Sf9 cells using IGF1Rtide as substrate preincubated for 15 min followed by substrate addition and measured after 1 hr by ADP-Glo kinase assay
Sequence of Tyrosine-protein kinase JAK2 (O60674 whole entry): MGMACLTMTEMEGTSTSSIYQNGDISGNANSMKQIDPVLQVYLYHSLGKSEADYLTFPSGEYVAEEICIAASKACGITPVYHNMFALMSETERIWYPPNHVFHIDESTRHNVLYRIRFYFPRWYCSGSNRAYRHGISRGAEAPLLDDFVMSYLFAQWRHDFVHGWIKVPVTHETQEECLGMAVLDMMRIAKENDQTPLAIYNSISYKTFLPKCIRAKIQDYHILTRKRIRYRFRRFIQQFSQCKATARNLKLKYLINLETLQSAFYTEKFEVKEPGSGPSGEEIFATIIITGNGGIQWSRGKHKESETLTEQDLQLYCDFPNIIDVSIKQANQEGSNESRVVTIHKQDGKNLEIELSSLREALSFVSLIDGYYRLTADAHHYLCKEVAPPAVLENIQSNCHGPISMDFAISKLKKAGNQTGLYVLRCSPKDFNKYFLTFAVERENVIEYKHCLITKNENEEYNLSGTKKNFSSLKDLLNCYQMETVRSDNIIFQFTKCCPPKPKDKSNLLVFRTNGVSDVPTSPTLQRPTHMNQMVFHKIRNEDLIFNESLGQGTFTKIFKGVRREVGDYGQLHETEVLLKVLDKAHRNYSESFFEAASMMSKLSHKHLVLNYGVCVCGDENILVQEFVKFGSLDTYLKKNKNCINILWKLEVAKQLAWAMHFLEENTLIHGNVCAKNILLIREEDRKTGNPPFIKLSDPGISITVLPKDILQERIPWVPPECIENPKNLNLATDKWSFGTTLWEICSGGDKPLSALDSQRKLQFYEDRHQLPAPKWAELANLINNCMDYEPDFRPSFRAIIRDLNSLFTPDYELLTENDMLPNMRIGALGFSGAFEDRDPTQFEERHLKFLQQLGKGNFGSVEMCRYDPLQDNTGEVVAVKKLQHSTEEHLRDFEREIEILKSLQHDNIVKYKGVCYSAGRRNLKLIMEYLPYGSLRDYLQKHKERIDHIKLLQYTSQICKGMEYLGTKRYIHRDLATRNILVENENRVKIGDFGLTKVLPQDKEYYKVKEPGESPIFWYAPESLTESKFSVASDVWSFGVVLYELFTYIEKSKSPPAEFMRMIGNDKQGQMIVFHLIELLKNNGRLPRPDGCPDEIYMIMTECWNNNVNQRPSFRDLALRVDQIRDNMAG

[6] = target: T1, Tyrosine-protein kinase JAK3 (Homo sapiens, UniProt P52333); test: Inhibition of N-terminal GST-tagged human recombinant JAK3 (781 to end residues) extracted from baculovirus infected in Sf9 cells using Poly(4:1 Glu, Tyr) as substrate preincubated for 15 min followed by substrate addition and measured after 1 hr by ADP-Glo kinase assay
T1 sequence (P52333 whole entry): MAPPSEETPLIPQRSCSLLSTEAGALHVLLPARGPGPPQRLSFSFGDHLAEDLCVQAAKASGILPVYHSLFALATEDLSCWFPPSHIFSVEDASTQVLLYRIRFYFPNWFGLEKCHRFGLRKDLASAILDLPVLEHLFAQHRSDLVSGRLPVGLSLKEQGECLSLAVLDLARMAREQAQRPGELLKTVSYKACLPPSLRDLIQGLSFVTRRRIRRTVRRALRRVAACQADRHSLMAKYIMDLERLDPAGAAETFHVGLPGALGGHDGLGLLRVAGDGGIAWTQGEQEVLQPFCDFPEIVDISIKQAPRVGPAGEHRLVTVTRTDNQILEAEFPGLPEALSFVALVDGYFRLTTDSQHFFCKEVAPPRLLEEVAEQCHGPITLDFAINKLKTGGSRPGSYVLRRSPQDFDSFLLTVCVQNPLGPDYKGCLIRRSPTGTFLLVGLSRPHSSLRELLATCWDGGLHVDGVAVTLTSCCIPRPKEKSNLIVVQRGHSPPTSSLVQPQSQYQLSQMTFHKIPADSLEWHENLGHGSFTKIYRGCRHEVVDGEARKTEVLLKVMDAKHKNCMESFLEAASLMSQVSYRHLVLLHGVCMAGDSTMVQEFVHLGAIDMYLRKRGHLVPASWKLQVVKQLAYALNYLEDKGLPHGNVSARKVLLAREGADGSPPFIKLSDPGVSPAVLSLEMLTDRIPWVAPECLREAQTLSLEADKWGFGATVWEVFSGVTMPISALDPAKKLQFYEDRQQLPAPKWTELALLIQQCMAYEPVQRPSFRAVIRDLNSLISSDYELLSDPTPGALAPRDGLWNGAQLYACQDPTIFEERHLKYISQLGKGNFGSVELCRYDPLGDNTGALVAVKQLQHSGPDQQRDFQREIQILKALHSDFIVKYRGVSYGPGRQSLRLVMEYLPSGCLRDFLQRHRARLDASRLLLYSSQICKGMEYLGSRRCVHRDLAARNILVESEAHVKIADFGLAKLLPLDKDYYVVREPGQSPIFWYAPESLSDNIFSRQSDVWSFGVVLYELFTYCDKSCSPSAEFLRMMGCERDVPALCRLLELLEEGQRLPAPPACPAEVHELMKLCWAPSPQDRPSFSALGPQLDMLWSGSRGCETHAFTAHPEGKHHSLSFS

[7] = tested on: NCI-H1975; test: Antiproliferative activity against human NCI-H1975 cells overexpressing JAK1 assessed as suppression of cell growth incubated for 72 hrs by Cell-TiterGlo assay; type: functional, cell-based
[8] = tested on: NCI-H2087; test: Antiproliferative activity against human NCI-H2087 cells overexpressing JAK1 assessed as suppression of cell growth incubated for 72 hrs by Cell-TiterGlo assay; type: functional, cell-based
[9] = tested on: UMUC3; test: Antiproliferative activity against human UMUC3 cells overexpressing JAK1 assessed as suppression of cell growth incubated for 72 hrs by Cell-TiterGlo assay; type: functional, cell-based
[10] = tested on: U2OS; test: Antiproliferative activity against human U2OS cells overexpressing JAK1 assessed as suppression of cell growth incubated for 72 hrs by Cell-TiterGlo assay; type: functional, cell-based
[11] = tested on: HT-29; test: Antiproliferative activity against human HT-29 cells overexpressing JAK1 assessed as suppression of cell growth incubated for 72 hrs by Cell-TiterGlo assay; type: functional, cell-based
[12] = tested on: HCT-116; test: Antiproliferative activity against human HCT-116 cells overexpressing JAK1 assessed as suppression of cell growth incubated for 72 hrs by Cell-TiterGlo assay; type: functional, cell-based
[13] = target: Signal transducer and activator of transcription 3 (Homo sapiens) (UniProt P40763); test: Inhibition of STAT3 phosphorylation in human NCI-H1975 cells incubated for 1 hr by Western blot analysis; type: cell-based; details: dose 1-10 µM
Sequence of Signal transducer and activator of transcription 3 (Homo sapiens) (P40763 whole entry): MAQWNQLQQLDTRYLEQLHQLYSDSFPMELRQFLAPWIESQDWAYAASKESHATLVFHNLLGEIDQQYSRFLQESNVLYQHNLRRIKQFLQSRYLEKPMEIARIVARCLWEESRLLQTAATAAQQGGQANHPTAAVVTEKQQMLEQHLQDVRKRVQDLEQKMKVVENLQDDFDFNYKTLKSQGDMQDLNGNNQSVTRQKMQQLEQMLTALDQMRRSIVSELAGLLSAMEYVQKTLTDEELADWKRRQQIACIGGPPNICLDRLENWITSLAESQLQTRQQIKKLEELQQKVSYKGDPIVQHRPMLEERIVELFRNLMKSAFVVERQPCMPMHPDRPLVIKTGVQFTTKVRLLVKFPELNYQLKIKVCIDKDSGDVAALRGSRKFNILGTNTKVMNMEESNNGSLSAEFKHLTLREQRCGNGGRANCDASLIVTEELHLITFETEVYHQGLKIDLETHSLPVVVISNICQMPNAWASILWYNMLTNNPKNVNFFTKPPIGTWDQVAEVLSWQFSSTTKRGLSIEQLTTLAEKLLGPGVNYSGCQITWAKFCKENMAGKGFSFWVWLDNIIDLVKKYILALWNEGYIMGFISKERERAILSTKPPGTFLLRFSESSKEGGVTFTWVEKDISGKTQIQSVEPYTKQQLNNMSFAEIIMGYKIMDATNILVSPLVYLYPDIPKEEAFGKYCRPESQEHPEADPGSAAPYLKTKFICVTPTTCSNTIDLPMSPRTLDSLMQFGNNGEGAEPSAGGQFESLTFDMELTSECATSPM

[14] = target: Signal transducer and activator of transcription 3 (Homo sapiens) (UniProt P40763); test: Inhibition of STAT3 phosphorylation in human NCI-H2087 cells incubated for 1 hr by Western blot analysis; type: cell-based; details: dose 1-10 µM
[15] = tested on: NCI-H1975; test: Inhibition of colony formation in human NCI-H1975 cells at 10 uM incubated for 14 days by crystal violet staining based 2D colony formation assay; type: functional, cell-based; details: time 14.0 day
[16] = tested on: NCI-H2087; test: Inhibition of colony formation in human NCI-H2087 cells at 10 uM incubated for 14 days by crystal violet staining based 2D colony formation assay; type: functional, cell-based; details: time 14.0 day
[17] = tested on: NCI-H1975; test: Induction of cell cycle arrest in human NCI-H1975 cells assessed as accumulation of cells at G2/M phase at 1 to 10 uM incubated for 24 hrs by propidium iodide/RNase staining based analysis; type: functional; details: dose 1-10 µM
[18] = tested on: NCI-H2087; test: Induction of cell cycle arrest in human NCI-H2087 cells assessed as accumulation of cells at G2/M phase at 1 to 10 uM incubated for 24 hrs by propidium iodide/RNase staining based analysis; type: functional; details: dose 1-10 µM
[19] = tested on: NCI-H1975; test: Induction of apoptosis in human NCI-H1975 cells at 1 to 10 uM incubated for 24 hrs by Annexin V/Propidium iodide staining based analysis; type: functional, cell-based; details: dose 1-10 µM
[20] = tested on: NCI-H2087; test: Induction of apoptosis in human NCI-H2087 cells at 1 to 10 uM incubated for 24 hrs by Annexin V/Propidium iodide staining based analysis; type: functional, cell-based; details: dose 1-10 µM
[21] = tested on: NCI-H1975; test: Synergistic antiproliferative activity against human NCI-H1975 cells assessed as cell growth inhibition measured after 48 hrs in presence of osimertinib by celltiterglo analysis; type: functional, cell-based
[22] = tested on: NCI-H1975; test: Upregulation of STAT3 phosphorylation level in human NCI-H1975 cells; type: functional, cell-based
[23] = tested on: NCI-H2087; test: Upregulation of STAT3 phosphorylation level in human NCI-H2087 cells; type: functional, cell-based

COc1nn(C)cc1Nc1ncc2scc(-c3cccc(NC(=O)[C@H]4CCCN4C(C)=O)c3)c2n1
GI50 [1]: 4.06 µM
GI50 [2]: 0.897 µM
GI50 [3]: 10.2 µM
GI50 [4]: 13.1 µM
IC50 [5]: 3.02 µM
IC50 [6]: 0.248 µM

COc1nn(C)cc1Nc1ncc2scc(-c3cccc(NC(C)=O)c3)c2n1
GI50 [1]: 4.16 µM
GI50 [2]: 0.331 µM
GI50 [3]: > 50 µM
GI50 [4]: > 44 µM
IC50 [5]: 0.295 µM
IC50 [6]: 0.05 µM

Cc1nn(C)cc1Nc1ncc2scc(-c3cccc(NC(=O)[C@@H](C)N4CCN(C)CC4)c3)c2n1
GI50 [1]: 2.91 µM
GI50 [2]: 0.45 µM
GI50 [3]: 3.19 µM
GI50 [4]: 5.65 µM
IC50 [5]: 2.75 µM
IC50 [6]: 4.9 µM
Activity [7]: Active
Activity [8]: Active
Activity [9]: Active
Activity [10]: Active
Activity [11]: Active
Activity [12]: Active
inhibition [13]: Dose-dependent-effect
inhibition [14]: Dose-dependent-effect
inhibition [15]: Active
inhibition [16]: Active
Activity [17]: Active
Activity [18]: Active
Activity [19]: Active
Activity [20]: Active
Activity [21]: Active
Activity [22]: Active
Activity [23]: Active

COc1nn(C)cc1Nc1ncc2scc(-c3cccc(NC(=O)[C@H]4CCCN4C4CCOCC4)c3)c2n1
GI50 [1]: 6.37 µM
GI50 [2]: 2.79 µM
GI50 [3]: 21 µM
GI50 [4]: 9.31 µM

C[C@H](C(=O)Nc1cccc(-c2csc3cnc(Nc4cn(C)nc4C(F)(F)F)nc23)c1)N1CCN(C)CC1
GI50 [1]: 2.77 µM
GI50 [2]: 1.93 µM
GI50 [3]: 7.4 µM
GI50 [4]: 3.03 µM

COc1nn(C)cc1Nc1ncc2scc(-c3cccc(N)c3)c2n1
GI50 [1]: 1.01 µM
GI50 [2]: 0.313 µM
GI50 [3]: 4.49 µM
GI50 [4]: 4.6 µM
IC50 [5]: 0.154 µM
IC50 [6]: 0.068 µM

COc1nn(C)cc1Nc1ncc2scc(-c3cccc(NC(=O)[C@@H](C)N4CCN(C5CCOCC5)CC4)c3)c2n1
GI50 [1]: 1.37 µM
GI50 [2]: 1.22 µM
GI50 [3]: 23.4 µM
GI50 [4]: 8.98 µM
